# Test results: patent US20170232083A1, “METHODS OF DIAGNOSIS AND TREATMENT OF CELIAC DISEASE IN CHILDREN” (priority 2014, published 2017)
# System: PBMC (polyclonal gluten-specific T cells) of paediatric and adult CD patients
# Assay: IFN-γ ELISpot of PBMC after 3 day oral wheat challenge (SFU, % of maximal peptide response, dominance scores, EC50; Examples 5-6)
# Format: cell-based, human
# Conditions: for Cross-reactive T cell response: following wheat challenge
sequence,measurement,setting,value
QPFPQPEQPIPQQ,Cross-reactive T cell response,"subject A, 11-17yrs",3 SFU
same,Significant response as a percentage of maximal peptide SFU,"subject D, 11-17yrs",+ (>70% = +)
same,Cross-reactive T cell response,"subject D, 11-17yrs",29 SFU
same,Significant response as a percentage of maximal peptide SFU,"subject E, 11-17yrs",′′ (21-40% = ′′)
same,Cross-reactive T cell response,"subject E, 11-17yrs",87 SFU
same,Significant response as a percentage of maximal peptide SFU,"subject F, 11-17yrs",′′ (21-40% = ′′)
same,Cross-reactive T cell response,"subject F, 11-17yrs",62 SFU
same,Cross-reactive T cell response,"subject G, 11-17yrs",4 SFU
same,Cross-reactive T cell response,subject H,1 SFU
same,Cross-reactive T cell response,subject I (3-5yrs/6-10yrs part),3 SFU
same,Significant response as a percentage of maximal peptide SFU,subject J,′′′ (41-70% = ′′′)
same,Cross-reactive T cell response,subject J (3-5yrs/6-10yrs part),132 SFU
same,Significant response as a percentage of maximal peptide SFU,subject K,′ (11-20% = ′)
same,Cross-reactive T cell response,subject K (3-5yrs/6-10yrs part),11 SFU
same,Significant response as a percentage of maximal peptide SFU,"subject P, 11-17yrs",+ (>70% = +)
same,Cross-reactive T cell response,"subject P, 11-17yrs",48 SFU
same,Significant response as a percentage of maximal peptide SFU,"subject Q, 11-17yrs",′′′ (41-70% = ′′′)
same,Cross-reactive T cell response,"subject Q, 11-17yrs",64 SFU
same,Significant response as a percentage of maximal peptide SFU,"subject T, 11-17yrs",+ (>70% = +)
same,Cross-reactive T cell response,"subject T, 11-17yrs",87 SFU
same,Significant response as a percentage of maximal peptide SFU,"subject U, 11-17yrs",′′′ (41-70% = ′′′)
same,Cross-reactive T cell response,"subject U, 11-17yrs",41 SFU
same,Significant response as a percentage of maximal peptide SFU,subject V,′′′ (41-70% = ′′′)
same,Cross-reactive T cell response,subject V (3-5yrs/6-10yrs part),17 SFU
same,Cross-reactive T cell response,subject W (3-5yrs/6-10yrs part),5 SFU
same,Cross-reactive T cell response,subject Y (3-5yrs/6-10yrs part),7 SFU
same,Significant response as a percentage of maximal peptide SFU,subject five,+ (>70% = +)
same,Cross-reactive T cell response,subject five (3-5yrs/6-10yrs part),44 SFU
same,Cross-reactive T cell response,"subject nine, 11-17yrs",1 SFU
same,Cross-reactive T cell response,subject seven (3-5yrs/6-10yrs part),7 SFU
same,Significant response as a percentage of maximal peptide SFU,subject six,+ (>70% = +)
same,Cross-reactive T cell response,subject six (3-5yrs/6-10yrs part),12 SFU
same,Cross-reactive T cell response,subject ten (3-5yrs/6-10yrs part),4 SFU
same,Significant response as a percentage of maximal peptide SFU,subject two,′′ (21-40% = ′′)
same,Cross-reactive T cell response,subject two (3-5yrs/6-10yrs part),24 SFU
